Source: US5571836A, “Viral attachment inhibitors” (priority 1995, dated 1996)
Counter-ions that a name gives are not always drawn.

How the values were obtained:
[1] = system: influenza virus Chile/1/83; experiment: Fetuin binding inhibition assay, influenza virus Chile/1/83
[2] = system: influenza virus USSR/2/85; experiment: Fetuin binding inhibition assay, influenza virus USSR/2/85; conditions: for A^i (absorbance): 492 nm
[3] = assay type: physicochemical; conditions: control solutions without enzyme
Description: Compound (IV) was incubated at 37° C. with Vibrio cholerae neuraminidase (450 U/ml) in 0.1M acetate buffer, pH 5.6, containing 0.9% NaCi and 0.1% CaCl2. Neuraminidase cleavage was determined on aliquots taken at intervals by TLC analysis (Merck silica gel plates in propanol/ethanol/25% aqueous ammonia, 2:2:1). Spots were developed by charring the plates with 3% H3 PO4 at 150° C. and quantitated densitometrically. The results are depicted in The FIGURE (v).

[4] = system: influenza virus USSR/3/85; experiment: Fetuin binding inhibition assay, influenza virus USSR/3/85; conditions: for A^i (absorbance): 492 nm
[5] = system: influenza virus Philippines/2/82; experiment: Fetuin binding inhibition assay, influenza virus Philippines/2/82; conditions: for A^i (absorbance): 492 nm
[6] = system: influenza virus England/321/77; experiment: Fetuin binding inhibition assay, influenza virus England/321/77; conditions: for A^i (absorbance): 492 nm
[7] = system: influenza virus X-31; experiment: Fetuin binding inhibition assay, influenza virus X-31; conditions: for A^i (absorbance): 492 nm
[8] = system: influenza virus Texas/1/77; experiment: Fetuin binding inhibition assay, influenza virus Texas/1/77; conditions: for A^i (absorbance): 492 nm
[9] = system: influenza virus B/Hong Kong/8/73; experiment: Fetuin binding inhibition assay, influenza virus B/Hong Kong/8/73; conditions: for A^i (absorbance): 492 nm
[10] = system: influenza viruses; experiment: Fetuin binding inhibition assay, influenza virus strains overall

CC(=S)NC1C(O)CC(OCc2ccccc2)(C(=O)O)OC1C(O)C(O)CO [IV, benzyl 3,5-dideoxy5-thioacetamido-α-D-glycero-D-galacto-nonulopyranosidonicacid (sodium salt)]
A^i (absorbance) ([1]; .64 mM sialoside, 492 nm): 0.63
-lgKd ± SD ([1]; mean over concentrations): 3.5 ± 0.04
-lgKd(i) ([2]; 1.28 mM sialoside): 2.6
A^i (absorbance) ([2]; 1.28 mM sialoside): 0.23
-lgKd(i) ([2]; 2.56 mM sialoside): 2.5
A^i (absorbance) ([2]; 2.56 mM sialoside): 0.21
-lgKd(i) ([2]; .64 mM sialoside): 2.6
A^i (absorbance) ([2]; .64 mM sialoside): 0.28
-lgKd ± SD ([2]; mean over concentrations): 2.6 ± 0.06
Stability in the absence of enzyme [3]: at least 23 hours
-lgKd(i) ([4]; 1.28 mM sialoside): 3.6
A^i (absorbance) ([4]; 1.28 mM sialoside): 0.32
-lgKd(i) ([4]; 2.56 mM sialoside): 3.8
A^i (absorbance) ([4]; 2.56 mM sialoside): 0.12
-lgKd(i) ([4]; .08 mM sialoside): 3.8
A^i (absorbance) ([4]; .08 mM sialoside): 1.05
-lgKd(i) ([4]; .16 mM sialoside): 3.8
A^i (absorbance) ([4]; .16 mM sialoside): 0.81
-lgKd(i) ([4]; .32 mM sialoside): 3.8
A^i (absorbance) ([4]; .32 mM sialoside): 0.62
-lgKd(i) ([4]; .64 mM sialoside): 3.7
A^i (absorbance) ([4]; .64 mM sialoside): 0.43
-lgKd ± SD ([4]; mean over concentrations): 3.8 ± 0.08
-lgKd(i) ([5]; 1.60 mM sialoside): 4.1
A^i (absorbance) ([5]; 1.60 mM sialoside): 0.20
-lgKd(i) ([5]; .05 mM sialoside): 4.0
A^i (absorbance) ([5]; .05 mM sialoside): 0.75
-lgKd(i) ([5]; .10 mM sialoside): 4.4
A^i (absorbance) ([5]; .10 mM sialoside): 0.59
-lgKd(i) ([5]; .20 mM sialoside): 4.1
A^i (absorbance) ([5]; .20 mM sialoside): 0.56
-lgKd(i) ([5]; .40 mM sialoside): 4.1
A^i (absorbance) ([5]; .40 mM sialoside): 0.43
-lgKd(i) ([5]; .80 mM sialoside): 4.1
A^i (absorbance) ([5]; .80 mM sialoside): 0.32
-lgKd ± SD ([5]; mean over concentrations): 4.1
-lgKd(i) ([6]; 1.28 mM sialoside): 3.7
A^i (absorbance) ([6]; 1.28 mM sialoside): 0.21
-lgKd(i) ([6]; 2.56 mM sialoside): 3.5
A^i (absorbance) ([6]; 2.56 mM sialoside): 0.16
-lgKd(i) ([6]; .08 mM sialoside): 3.4
A^i (absorbance) ([6]; .08 mM sialoside): 0.98
-lgKd(i) ([6]; .16 mM sialoside): 3.7
A^i (absorbance) ([6]; .16 mM sialoside): 0.73
-lgKd(i) ([6]; .32 mM sialoside): 3.7
A^i (absorbance) ([6]; .32 mM sialoside): 0.56
-lgKd(i) ([6]; .64 mM sialoside): 3.7
A^i (absorbance) ([6]; .64 mM sialoside): 0.37
-lgKd ± SD ([6]; mean over concentrations): 3.6 ± 0.13
-lgKd(i) ([7]; 1.28 mM sialoside): 3.3
A^i (absorbance) ([7]; 1.28 mM sialoside): 0.34
-lgKd(i) ([7]; 2.56 mM sialoside): 3.2
A^i (absorbance) ([7]; 2.56 mM sialoside): 0.24
-lgKd(i) ([7]; .08 mM sialoside): 3.2
A^i (absorbance) ([7]; .08 mM sialoside): 0.86
-lgKd(i) ([7]; .16 mM sialoside): 3.4
A^i (absorbance) ([7]; .16 mM sialoside): 0.72
-lgKd(i) ([7]; .32 mM sialoside): 3.3
A^i (absorbance) ([7]; .32 mM sialoside): 0.65
-lgKd(i) ([7]; .64 mM sialoside): 3.3
A^i (absorbance) ([7]; .64 mM sialoside): 0.51
-lgKd ± SD ([7]; mean over concentrations): 3.3 ± 0.08
-lgKd(i) ([8]; 1.60 mM sialoside): 4.0
A^i (absorbance) ([8]; 1.60 mM sialoside): 0.35
-lgKd(i) ([8]; .05 mM sialoside): 3.8
A^i (absorbance) ([8]; .05 mM sialoside): 1.0
-lgKd(i) ([8]; .10 mM sialoside): 4.1
A^i (absorbance) ([8]; .10 mM sialoside): 0.9
-lgKd(i) ([8]; .20 mM sialoside): 4.0
A^i (absorbance) ([8]; .20 mM sialoside): 0.83
-lgKd(i) ([8]; .40 mM sialoside): 4.0
A^i (absorbance) ([8]; .40 mM sialoside): 0.70
-lgKd(i) ([8]; .80 mM sialoside): 3.9
A^i (absorbance) ([8]; .80 mM sialoside): 0.55
-lgKd ± SD ([8]; mean over concentrations): 4.0 ± 0.1
-lgKd(i) ([9]; 1.28 mM sialoside): 2.6
A^i (absorbance) ([9]; 1.28 mM sialoside): 0.46
-lgKd(i) ([9]; 2.56 mM sialoside): 2.7
A^i (absorbance) ([9]; 2.56 mM sialoside): 0.32
-lgKd(i) ([9]; .64 mM sialoside): 2.5
A^i (absorbance) ([9]; .64 mM sialoside): 0.54
-lgKd ± SD ([9]; mean over concentrations): 2.6 ± 0.1
Inhibition of virus strains [10]: inhibits some virus strains better than its analog
